Assay results as given in US8557800B2, “Sphingosine kinase inhibitors” (Apogee Biotechnology Corporation, priority 2005, dated 2013).
Where “and” joins values, the source holds several entries; their conditions need not be identical. Equal values may be shown once. Read-outs that look alike come from different tables or passages of the source.

What was measured:
[1] = system: SK-OV-3 (ovary); assay: Human tumor cell line panel, sulforhodamine B; assay type: cell-based; details: 48 hours, mean ± sd
[2] = system: Hep-G2 (liver); assay: Human tumor cell line panel, sulforhodamine B; assay type: cell-based; details: HepG2, 48 hours, mean ± sd
[3] = system: mouse JC mammary adenocarcimona cell line growing subcutaneously in Balb/c mice
Protocol: The antitumor activity of the representative SK inhibitors were evaluated using a syngeneic tumor model that uses the mouse JC mammary adenocarcimona cell line growing subcutaneously in immunocompetent Balb/c mice (Lee et al., 2003, Oncol Res 14: 49).
In FIG. 1, Balb/c mice, 6-8 weeks old, were injected subcutaneously with 10^6 JC cells suspended in phosphate-buffered saline. The SK inhibitors Compounds 62 and 57 were dissolved in PEG400 and administered to mice every-other day at a dose of 100 mg/kg. Body weights and tumor volumes were monitored daily. In FIG. 1, tumor growth is expressed as the tumor volume relative to day 1 for each animal.

[4] = Oral pharmacokinetics in mice (PEG400); assay type: in vivo; details: mouse, blood, 100 mg/kg oral gavage in PEG400, female Swiss-Webster mice
Protocol: Oral pharmacokinetic studies were performed on Compounds 62 and 57. Each compound was dissolved in PEG400 and administered to female Swiss-Webster mice at a dose of 100 mg/kg by oral gavage. Mice were anesthetized and blood was removed via cardiac puncture at 5 minutes, 30 minutes, 1, 2, and 8 hours. Concentrations of the test compounds were determined using liquid-liquid extraction, appropriate internal standards and reverse phase HPLC with UV detection. Control blood samples were run to identify compound-specific peaks. Pharmacokinetic parameters were calculated using the WINNONLIN analysis software package (Pharsight). Non-compartmental and compartmental models were tested, with the results shown in Table 7 derived from the best fit equations.

[5] = system: MCF-10A non-transformed human breast epithelial cells; assay: Cytotoxicity, SRB binding assay; assay type: cell-based; details: inhibition of cell proliferation, 48 h, read-out: MCF-10A IC50
Method in brief: (§1)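 Cells exposed to varying compound doses for 48 h, then survival measured by sulforhodamine B staining. IC50 is the concentration giving 50% proliferation inhibition, in μM, as mean±sd of replicate trials.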

[6] = system: MCF-7 human breast adenocarcinoma cells; assay: Cytotoxicity, SRB binding assay; assay type: cell-based; details: MCF7, inhibition of cell proliferation, 48 h, read-out: MCF-7 IC50
Method in brief: as §1

[7] = physchem; details: aqueous with cosolvent or surfactant or cyclodextrin
[8] = system: MCF-7 (breast, ER+); assay: Human tumor cell line panel, sulforhodamine B; assay type: cell-based; details: MCF7, 48 hours, mean ± sd
[9] = system: Panc-1 (pancreas); assay: Human tumor cell line panel, sulforhodamine B; assay type: cell-based; details: 48 hours, mean ± sd
[10] = system: HT-29 (colon); assay: Human tumor cell line panel, sulforhodamine B; assay type: cell-based; details: 48 hours, mean ± sd
[11] = system: Caco-2 (colon); assay: Human tumor cell line panel, sulforhodamine B; assay type: cell-based; details: 48 hours, mean ± sd
[12] = system: 1025LU (melanoma); assay: Human tumor cell line panel, sulforhodamine B; assay type: cell-based; details: 48 hours, mean ± sd
[13] = system: DU145 (prostate); assay: Human tumor cell line panel, sulforhodamine B; assay type: cell-based; details: DU-145, 48 hours, mean ± sd
[14] = system: MDA-MB-231 (breast, ER−); assay: Human tumor cell line panel, sulforhodamine B; assay type: cell-based; details: 48 hours, mean ± sd
[15] = system: T24 (bladder); assay: Human tumor cell line panel, sulforhodamine B; assay type: cell-based; details: 48 hours, mean ± sd
[16] = system: recombinant human SK; assay: Inhibition of recombinant human SK, LC/MS/MS assay; assay type: biochemical; details: 6 μg/ml compound
Method in brief: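 Enzyme incubated with unlabeled sphingosine and ATP (1 mM, as in the radiometric format) for 30 min, then stopped and extracted with acetonitrile. S1P quantified by C8 reverse-phase HPLC–MS/MS against C17 sphingosine and C17 S1P internal standards using calibration curves.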

[17] = system: A-498 (kidney); assay: Human tumor cell line panel, sulforhodamine B; assay type: cell-based; details: A498, 48 hours, mean ± sd
[18] = system: recombinant human SK; assay: Recombinant human SK assay with [3H]sphingosine; assay type: biochemical; details: positive control
Protocol: An assay for identifying inhibitors of recombinant human SK has been established (French et al., 2003, Cancer Res 63: 5962). cDNA for human SK was subcloned into a pGEX bacterial expression vector, which results in expression of the enzyme as a fusion protein with glutathione-S-transferase, and the fusion protein is then purified on a column of immobilized glutathione. SK activity is measured by incubation of the recombinant SK with [^3H]sphingosine and 1 mM ATP under defined conditions, followed by extraction of the assay mixture with chloroform:methanol under basic conditions. […] Radioactivity in aliquots of the aqueous phase is then quantified as a measure of [^3H]S1P formation. There is a low background level of partitioning of [^3H]sphingosine into the aqueous phase, and addition of the recombinant SK greatly increases the formation of [^3H]S1P.

**Q.** What does the source list for CN1CCCC1CCNC(=O)C12CC3CC(C1)CC(c1ccc(Cl)cc1)(C3)C2 (centres unmarked) [Compound 57, 3-(4-Chloro-phenyl)-adamantane-1-carboxylic acid [2-(1-methyl-pyrrolidin-2-yl)-ethyl]-amide]?
**A.** IC50 [1]: 9.2 ± 2.8 µM; IC50 [2]: 5 ± 1.8 µM; inhibition of tumor growth relative to controls ([3]; 100 mg/kg oral every-other day in PEG400): 78%; In vivo activity ([3]; JC tumor model, intraperitoneal (ip) or oral (po) administration): active - po; Cmax [4]: 3.8 µM; Tmax [4]: 2 h; half-life [4]: 19.3 h; AUC(0-inf) ([4]; read-out: AUC0→∞ (μM * h)): 111 µM·h; AUC(0-inf) ([4]; read-out: AUC0→∞ (μg * h/mL)): 45000 ng·h/mL; IC50 [5]: 8 µM; IC50 [6]: 6 µM; solubility [7]: ≥ 15000 µg/mL and 30000 µM to 40000 µM; IC50 [8]: 12.1 ± 3.1 µM; IC50 [9]: 14.1 ± 6.3 µM; IC50 [10]: 9.6 ± 4 µM; IC50 [11]: 3.2 ± 2 µM; IC50 [12]: 7.2 ± 0.8 µM; IC50 [13]: 8.7 ± 3.3 µM; IC50 [14]: 12.5 ± 2.5 µM; IC50 [15]: 12.7 ± 2.8 µM; Recombinant SK (% inhibition) [16]: 30%; IC50 [17]: 8 ± 3.5 µM

**Q.** For CCCCCCCCCCCCC/C=C/[C@@H](O)[C@H](CO)N(C)C [DMS, D-erythro-N,N-dimethylsphingosine], which “concentration that completely inhibits SK activity” value [18] is on record?
**A.** above 25 μM
